# Test system: hepatocytes
# Assay: Seq-Well scRNA-Seq of hepatocytes after APAP overdose (signature scores, DEG vs untreated)
# Assay type: in vivo, mouse
# Settings: A6 vs UT
smiles,measurement,value
"CC(=O)Nc1ccc(O)cc1 [APAP, acetaminophen]",Ash11 A6logFC,0.2657
same,Asl avg_logFC,0.5586
same,Atf4 A6logFC,0.3411
same,Atf6 A6logFC,0.3778
same,Atox1 avg_logFC,−0.4462
same,Atox1 pct.1,0.382
same,Atp1a1 avg_logFC,0.4191
same,Atp1a1 pct.1,0.53
same,Atp1b1 A6logFC,0.3702
same,Atp2a2 avg_logFC,0.495
same,Atp2b1 A6logFC,0.3321
same,Atp5e avg_logFC,−0.6502
same,Atp5f1 avg_logFC,−0.5171
same,Atp5f1 pct.1,0.69
same,Atp5j2 avg_logFC,−0.5131
same,Atp5j2 pct.1,0.606
same,Atp5k avg_logFC,−0.4773
same,Atp5k pct.1,0.368
same,Atp13a3 avg_logFC,0.3945
same,Atp13a3 pct.1,0.532
same,Atp5h avg_logFC,−0.6398
same,B2m avg_logFC,−0.3304
same,B2m pct.1,0.871
same,B4galt5 avg_logFC,0.4763
same,BC005537 A6logFC,0.3543
same,Bach1 avg_logFC,0.8323
same,Bbox1 avg_logFC,−0.4082
same,Bbox1 pct.1,0.308
same,Bc1af1 A6logFC,0.2685
same,Bcl2l1 avg_logFC,0.7751
same,Bcl3 avg_logFC,0.289
same,Bcl3 pct.1,0.277
same,Bclaf1 avg_logFC,0.2685
same,Bclaf1 pct.1,0.372
same,Bdh1 avg_logFC,−0.2936
same,Bdh1 pct.1,0.315
same,Bdhl A6logFC,−0.2936
same,Bet1 A6logFC,−0.2966
same,Birc6 A6logFC,0.3444
same,Birc6 avg_logFC,0.3444
same,Birc6 pct.1,0.446
same,Blvrb avg_logFC,−0.5451
same,Blvrb pct.1,0.286
same,Bphl avg_logFC,−0.4075
same,Bphl pct.1,0.339
same,Brd2 A6logFC,0.5715
same,Brd2 avg_logFC,0.5715
same,Brd2 pct.1,0.542
same,Bst2 A6logFC,−0.3156
same,Btaf1 A6logFC,0.2755
same,Btaf1 avg_logFC,0.2755
same,Btaf1 pct.1,0.284
same,Btg1 avg_logFC,0.458
same,Btg1 pct.1,0.356
same,Btg2 avg_logFC,0.8321
same,Bzw1 avg_logFC,0.2948
same,Bzw1 pct.1,0.475
same,C1qa avg_logFC,0.5148
same,C1qa pct.1,0.174
same,C1qc avg_logFC,0.5861
same,C1qc pct.1,0.172
same,C8g avg_logFC,−0.6545
same,C1d A6logFC,−0.2553
same,C1d avg_logFC,−0.2553
same,C1d pct.1,0.208
same,C230081A13Rik avg_logFC,0.427
same,Cald1 avg_logFC,0.3737
same,Cald1 pct.1,0.766
same,Cap1 A6logFC,0.3251
same,Cap1 avg_logFC,0.3251
same,Cap1 pct.1,0.356
same,Car3 avg_logFC,−1.036
same,Car5a A6logFC,−0.3088
same,Cbr1 avg_logFC,0.2847
same,Cbr1 pct.1,0.494
same,Ccbl1 avg_logFC,−0.3649
same,Ccbl1 pct.1,0.205
same,Ccdc50 A6logFC,0.2858
same,Ccdc50 avg_logFC,0.2858
same,Ccdc50 pct.1,0.401
same,Ccl6 avg_logFC,0.7891
same,Ccnl1 A6logFC,0.2566
same,Ccnl1 avg_logFC,0.2566
same,Ccnl1 pct.1,0.351
same,Ccs avg_logFC,−0.4267
same,Ccs pct.1,0.42
same,Cd5l avg_logFC,0.6935
same,Cd14 avg_logFC,0.3621
same,Cd44 avg_logFC,0.3037
same,Cd44 pct.1,0.115
same,Cd53 avg_logFC,0.2656
same,Cd53 pct.1,0.103
same,Cd74 avg_logFC,0.4539
same,Cd74 pct.1,0.155
same,Cd97 avg_logFC,0.3458
same,Cd97 pct.1,0.115
same,Cd163 avg_logFC,0.4408
same,Cd163 pct.1,0.146
same,Cd302 avg_logFC,−0.5499
same,Cdh1 A6logFC,0.2697
same,Cdh1 avg_logFC,0.2697
same,Cdh1 pct.1,0.327
same,Cdkn1a avg_logFC,1.215
same,Cebpa avg_logFC,−0.3916
same,Cebpa pct.1,0.442
same,Cela1 A6logFC,−0.2723
same,Cep85 A6logFC,0.2839
same,Cep85 avg_logFC,0.2839
same,Cep85 pct.1,0.313
same,Cers6 avg_logFC,0.5328
same,Ces3a avg_logFC,−0.5253
same,Ces3b avg_logFC,−0.3664
same,Ces3b pct.1,0.57
same,Cfhr1 A6logFC,−0.3253
same,Cfp avg_logFC,0.3562
same,Cfp pct.1,0.143
same,Chac2 avg_logFC,−0.2865
same,Chac2 pct.1,0.057
same,Chchd1 avg_logFC,−0.4398
same,Chchd1 pct.1,0.21
same,Chchd2 avg_logFC,−0.5525
same,Chchd10 avg_logFC,−0.4019
same,Chchd10 pct.1,0.802
same,Chd1 avg_logFC,0.3788
same,Chd1 pct.1,0.377
same,Chic2 avg_logFC,0.4198
same,Chic2 pct.1,0.37
same,Chka avg_logFC,1.375
same,Chmp4b A6logFC,0.3002
same,Chuk A6logFC,0.3724
same,Cidec avg_logFC,0.2994
same,Cldn2 A6logFC,−0.2511
same,Cldn14 avg_logFC,0.3645
same,Cldn14 pct.1,0.32
same,Clec4f avg_logFC,1.108
same,Clec4d avg_logFC,0.2636
same,Clec4d pct.1,0.107
same,Clic4 A6logFC,0.2998
same,Clic4 avg_logFC,0.2998
same,Clic4 pct.1,0.368
same,Clqb avg_logFC,0.6817
same,Cltc avg_logFC,0.785
same,Cmbl avg_logFC,−0.4427
same,Cmbl pct.1,0.415
same,Cml1 avg_logFC,−0.6142
same,Coa6 avg_logFC,−0.4114
same,Coa6 pct.1,0.15
same,Coasy A6logFC,−0.2534
same,Coasy avg_logFC,−0.2534
same,Coasy pct.1,0.327
same,Commd3 A6logFC,−0.2656
same,Commd3 avg_logFC,−0.2656
same,Commd3 pct.1,0.274
same,Commd6 avg_logFC,−0.3645
same,Commd6 pct.1,0.172
same,Cox4i1 avg_logFC,−0.516
same,Cox5b avg_logFC,−0.4988
same,Cox5b pct.1,0.425
same,Cox6a1 avg_logFC,−0.4872
same,Cox6a1 pct.1,0.675
same,Cox6c avg_logFC,−0.8443
same,Cox7a2 avg_logFC,−0.6503
same,Cox7b avg_logFC,−0.6422
same,Cp avg_logFC,0.2541
same,Cp pct.1,0.89
same,Creb3l2 avg_logFC,0.4272
same,Crp avg_logFC,−0.5069
same,Crp pct.1,0.477
same,Csad avg_logFC,−0.5598
same,Csad pct.1,0.473
same,Csrp3 A6logFC,−0.294
same,Ctnnd1 A6logFC,0.2518
same,Ctnnd1 avg_logFC,0.2518
same,Ctnnd1 pct.1,0.358
same,Ctsb A6logFC,0.5213
same,Ctsb avg_logFC,0.5213
same,Ctsb pct.1,0.804
same,Ctsc A6logFC,0.361
same,Ctsl avg_logFC,0.5301
same,Ctss avg_logFC,0.7642
same,Cu11 A6logFC,0.2592
same,Cu13 A6logFC,0.2788
same,Cul1 avg_logFC,0.2592
same,Cul1 pct.1,0.425
same,Cul3 avg_logFC,0.2788
same,Cul3 pct.1,0.415
same,Cxadr avg_logFC,0.6985
same,Cxcl12 avg_logFC,−0.3058
same,Cxcl12 pct.1,0.251
same,Cyb5 avg_logFC,−0.7102
same,Cybb A6logFC,0.3778
same,Cyp4a10 avg_logFC,0.4566
same,Cyp4a10 pct.1,0.687
same,Cyp4a14 avg_logFC,1.122
same,Cyp4f15 A6logFC,−0.2998
same,D10Wsu102e avg_logFC,0.5878
same,Dbi avg_logFC,−0.7164
same,Dcaf11 avg_logFC,−0.2817
same,Dcaf11 pct.1,0.446
same,Dcxr avg_logFC,−0.4409
same,Dcxr pct.1,0.37
same,Ddah1 A6logFC,−0.312

# Source: patent US20230053540A1, “TREATMENT OF LIVER INJURY” (Massachusetts Institute of Technology, priority 2019, published 2023)
